Assay [1] deals with T1, glucosylceramide synthase (GCS) (Homo sapiens, UniProt Q16739).
T1 construct: The obtained supernatant was used; host or cells: A549 cells (lysate supernatant after sonication)
T1 sequence (Q16739 1-394): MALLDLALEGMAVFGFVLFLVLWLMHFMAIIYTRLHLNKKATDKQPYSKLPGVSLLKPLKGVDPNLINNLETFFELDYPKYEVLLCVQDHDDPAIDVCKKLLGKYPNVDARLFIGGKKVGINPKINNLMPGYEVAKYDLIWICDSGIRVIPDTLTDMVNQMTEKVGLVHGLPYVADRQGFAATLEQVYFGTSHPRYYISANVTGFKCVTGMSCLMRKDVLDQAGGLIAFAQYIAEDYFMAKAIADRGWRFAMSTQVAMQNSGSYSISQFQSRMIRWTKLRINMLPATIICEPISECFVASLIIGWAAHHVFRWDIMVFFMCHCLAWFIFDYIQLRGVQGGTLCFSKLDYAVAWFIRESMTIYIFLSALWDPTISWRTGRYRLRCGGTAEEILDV
The experiment in a line: GCS enzyme inhibition assay (A549 cell lysate, NBD C6-ceramide, HPLC fluorescence). The settings on record: inhibitory activity against GCS, 37° C., 90 minutes. The format is biochemical. In a few lines: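 Percent GCS activity was derived from the GlcCer share of Cer plus GlcCer areas, scaled from ibiglustat (0%) to DMSO (100%). Enzyme came from sonicated A549 lysate in 50 mM HEPES pH 7.3; 90 min incubation at 37° C, chloroform/methanol stop and extraction.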

The subject of assay [2] is GM1 production in Jurkat cells. The experiment in a line: cells. The format is cell-based. The settings on record: Homo sapiens, Jurkat, 72 h.

Each structure is given as a SMILES string.

Broadly, the IC50 is the concentration that gives 50% inhibition. The low end stands for greater potency in that assay, the high end for weaker potency in that assay. Take `COc1cc2c(cc1-c1ccc(C(C)(C)C)cc1)OCC(C)(C)C2NC(=O)O[C@@H]1CN2CCC1CC2` (stereo partly drawn) [Example 364, (S)-quinuclidin-3-yl (7-(4-(tert-butyl)phenyl)-6-methoxy-3,3-dimethylchroman-4-yl)carbamate]: the IC50 turned out to be 430 pM in assay [1] and 2000 pM in assay [2].
Regarding `COc1cc2c(cc1-c1cc(C)c(OC)c(C)c1)OCC(C)(C)C2NC(=O)O[C@@H]1CN2CCC1CC2` (stereo partly drawn) [Example 365, (S)-quinuclidin-3-yl (6-methoxy-7-(4-methoxy-3,5-dimethylphenyl)-3,3-dimethylchroman-4-yl)carbamate], the IC50 in assay [1] stood at 1200 pM; in assay [2], 14500 pM.
Regarding `COc1cc2c(cc1-c1ccc(OCC(C)C)cc1)OCC(C)(C)C2NC(=O)O[C@@H]1CN2CCC1CC2` (stereo partly drawn) [Example 366, (S)-quinuclidin-3-yl (7-(4-isobutoxyphenyl)-6-methoxy-3,3-dimethylchroman-4-yl)carbamate], the half-maximal inhibitory concentration (IC50) in assay [1] was determined as 190 pM; in assay [2] it was 700 pM.
On the same counts, the results for `COc1cc2c(cc1-c1ccc(OC(C)C)nc1)OCC(C)(C)C2NC(=O)O[C@@H]1CN2CCC1CC2` (stereo partly drawn) [Example 367, (S)-quinuclidin-3-yl (7-(6-isopropoxypyridin-3-yl)-6-methoxy-3,3-dimethylchroman-4-yl)carbamate] are 220 pM and 3200 pM.

For the origin of these results see US12673944B2, “Compounds having inhibitory activity against glucosylceramide synthase or pharmaceutically acceptable salt thereof, processes for preparing the same, and pharmaceutical compositions comprising the same” (YUHAN CORPORATION, priority 2019, dated 2026).
